Measured values taken from patent publication US11116757B2 (priority 2015, dated 2021).
Like-named read-outs stand apart in the source and are kept apart here.

Target: DCN1-UBC12 interaction (Homo sapiens (Human), UniProt Q96GG9)
Experiment: biochemical
Type: binding
Conditions: read-out: TR-FRET IC50

DCN1-UBC12 interaction, sequence (Q96GG9 60-248 limits assumed): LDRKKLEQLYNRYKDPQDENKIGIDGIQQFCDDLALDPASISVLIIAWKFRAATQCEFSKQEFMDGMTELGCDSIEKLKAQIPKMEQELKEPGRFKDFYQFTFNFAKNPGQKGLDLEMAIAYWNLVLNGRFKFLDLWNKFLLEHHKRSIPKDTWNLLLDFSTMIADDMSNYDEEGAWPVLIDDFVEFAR

COCCN1CCN(C(=O)c2cnn(-c3nccc(-c4cc(C)sc4C)n3)c2COC)CC1 [E8]
IC50 (Table 6, commercial compounds): 22.8 µM

COc1cccc(NC(=O)C2CCN(C(=O)c3cnn(-c4ccccc4)c3-n3cccc3)CC2)c1 [C8]
IC50 (Table 4, commercial compounds): > 67.6 µM

CCN(CC)CCN(CC)C(=O)c1cnn(-c2ncc3c(n2)-c2ccccc2CC3)c1C1CC1 [E9]
IC50 (Table 6, commercial compounds): 23.1 µM

O=C(NC1CCN(Cc2cccc(F)c2)CC1)C(F)(F)F [A307]
IC50: > 98.1 µM

CCCN1CCC(N(CCC)C(=O)Nc2cccc(C(F)(F)F)c2)CC1 [A167, 1-Propyl-1-(1-Propylpiperidin-4-yl)-3-(3-(Trifluoromethyl)Phenyl)Urea]
IC50: 10.5 µM

CCN(CC)C(=O)c1cnn(-c2ncc(C)c(-c3cccs3)n2)c1C [E57]
IC50 (Table 6, commercial compounds): > 67.6 µM

O=C(Nc1cc(F)cc(C(F)(F)F)c1)N(Cc1ccccc1)C1CCN(Cc2ccc(Cc3ccccc3)cc2)CC1 [A211]
IC50: > 21.8 µM

Cc1nn(C)c2c1C(c1ccc(F)c(F)c1)C(NC(=O)c1ccc(Cl)cc1)C(=O)N2 (stereo not shown) [F26]
IC50 (Table 7, commercial compounds): > 67.6 µM

COc1ccc(C(=O)N2CCC(C(=O)Nc3cccc(F)c3)CC2)c2ccccc12 [C58]
IC50 (Table 4, commercial compounds): > 67.6 µM

C=CCN(CC=C)C(=O)c1cnn(-c2ncc(C)c(-c3cccs3)n2)c1C [E48]
IC50 (Table 6, commercial compounds): > 67.6 µM

CCOc1cc(C(=O)N2CCCC(c3nc4ccccc4s3)C2)cc(Br)c1OC (stereo not shown) [D28]
IC50: > 67.6 µM

CCCC(C)N1CCC(N(Cc2ccccc2)C(=O)Nc2ccc(Cl)c(Cl)c2F)CC1 (stereo not shown) [A40]
IC50: 0.227 µM

O=C(Nc1ccc2c(c1)C(=O)NCC2)NC1CCN(Cc2ccccc2)CC1 [B122]
IC50: > 84.8 µM

CC(=O)N1CCC(N(Cc2ccc(C)o2)C(=O)Nc2cc(Cl)ccc2Cl)CC1 [B89]
IC50: > 67.6 µM

CC(C)c1c(C(=O)N2CCN(C(C)C)CC2)cnn1-c1nccc(-c2cccs2)n1 [E62]
IC50 (Table 6, commercial compounds): > 77 µM

CCCC(C)N1CCC(N(Cc2ccccc2)C(=O)Nc2ccc(O)cc2)CC1 (stereo not shown) [A308]
IC50: > 98.6 µM

CCCN1CCC(N(CC2CCCCC2)C(=O)Nc2cccc(C(F)(F)F)c2)CC1 [A92, 1-(Cyclohexylmethyl)-1-(1-Propylpiperidin-4-yl)-3-(3-(Trifluoromethyl)Phenyl)Urea]
IC50: 1.23 µM

CCCC(C)N1CCC(N(Cc2ccccc2)C(=O)Nc2cccc(S(F)(F)(F)(F)F)c2)CC1 (stereo not shown) [A25]
IC50: 0.155 µM

C=CS(=O)(=O)NCc1cccc(CN(C(=O)Nc2cccc(C(F)(F)F)c2)C2CCN(C(C)CCC)CC2)c1 (stereo not shown) [A1]
IC50: 0.0043 µM

CCCC(C)N1CCC(N(CCNC(=O)CCl)C(=O)Nc2cccc(C(F)(F)F)c2)CC1 (stereo not shown) [A251]
IC50: > 59.9 µM

CCCC(C)N1CCC(N(Cc2ccccc2)C(=O)Nc2cc(Cl)cc(C(F)(F)F)c2)CC1 (stereo not shown) [A113]
IC50: 2.35 µM

CCCCN1CCC(N(Cc2ccccc2)C(=O)Nc2cc(F)cc(C(F)(F)F)c2)CC1 [A45]
IC50: 0.256 µM

O=C(CN1CCN(Cc2ccccc2)CC1)Nc1cc(C(F)(F)F)ccc1Cl [B113]
IC50: > 74 µM

CCCCN(C(=O)Nc1cccc(C(F)(F)F)c1)C1CCN(CCC)CC1 [A96, 1-Butyl-1-(1-Propylpiperidin-4-yl)-3-(3-(Trifluoromethyl)Phenyl)Urea]
IC50: 1.33 µM

CCCCN1CCC(N(Cc2ccccc2)C(=O)Nc2cnn(C)c2)CC1 [A284]
IC50: > 72.3 µM

CCC(CC)N1CCC(N(Cc2ccccc2)C(=O)Nc2cc(F)cc(C(F)(F)F)c2)CC1 [A120]
IC50: 0.616 µM

COc1ccc(C(=O)N2CCC(NCc3ccc(C)cc3)CC2)cc1 [A194]
IC50: > 10.3 µM

COc1ccc(CN(C(=O)Nc2ccc(C)cc2)C2CCN(C(C)=O)CC2)cc1 [B83]
IC50: > 67.6 µM

C=CS(=O)(=O)NCc1ccccc1CN(C(=O)Nc1cccc(C(F)(F)F)c1)C1CCN(C(C)CCC)CC1 (stereo not shown) [A2]
IC50: 0.0068 µM

COc1cccc(CN2CCC(N(Cc3ccccc3)C(=O)Nc3cc(F)cc(C(F)(F)F)c3)CC2)c1 [A231]
IC50: > 28.9 µM

CC1CN(Cc2ccccc2)CCC1N(C)C(=O)NC1C(=O)N(c2ccccc2)N(C)C1C (stereo not shown) [B27]
IC50: > 28.1 µM

Cc1cnc(-n2ncc(C(=O)N(C)CC(C)C)c2C)nc1-c1cccs1 [E41]
IC50 (Table 6, commercial compounds): > 67.6 µM

CCCCN1CCC(N(Cc2ccccc2)C(=O)Nc2cccc(C#N)c2)CC1 [A242]
IC50: > 52.5 µM

CCCCN1C(C)(C)CC(N(Cc2ccccc2)C(=O)Nc2cccc(C(F)(F)F)c2)CC1(C)C [A188]
IC50: 34.3 µM

O=C(c1ccc(Br)cc1)N1CCC(c2nc3ccccc3s2)CC1 [D9]
IC50: 21.8 µM

COc1ccccc1NC(=O)N(Cc1ccco1)C1CCN(C(C)=O)CC1 [B68]
IC50: > 67.6 µM

CC(c1ccccc1)N1CCC(N(Cc2ccccc2)C(=O)Nc2cc(F)cc(C(F)(F)F)c2)CC1 (stereo not shown) [A148]
IC50: 4.98 µM

Cc1nn(C)c2c1C(c1cccc(Cl)c1)C(NC(=O)c1ccc(Cl)cc1)C(=O)N2 (stereo not shown) [F28]
IC50 (Table 7, commercial compounds): > 67.6 µM

CCCC(C)N1CCC(N(Cc2ccccc2)C(=O)Nc2cccc(OC(F)(F)F)c2)CC1 (stereo not shown) [A12]
IC50: 0.0827 µM

CCCc1ccc(NC(=O)N(Cc2ccccc2)C2CCN(C(C)CCC)CC2)cc1 (stereo not shown) [A66]
IC50: 0.47 µM

C=CS(=O)(=O)NCc1ccccc1CN(C(=O)Nc1cccc(C(F)(F)F)c1)C1CCN(C(C)CCC)CC1 (stereo not shown) [drawing 850]
IC50: < 0.01 µM

C#CCCCN1CCC(N(Cc2ccccc2NC(=O)CC)C(=O)Nc2ccc(Cl)c(Cl)c2)CC1 [A200]
IC50: > 15 µM

CCN(CC)CCNC(=O)c1cnn(-c2nccc(-c3cccs3)n2)c1COC [E31]
IC50 (Table 6, commercial compounds): > 67.6 µM

CC1CC(NC(=O)NC2CCCNC2=O)CCN1Cc1ccccc1 (stereo not shown) [B36]
IC50: > 57.8 µM

CCCC(C)N1CCC(N(Cc2ccccc2)C(=O)Nc2ccc(C(F)(F)F)cc2)CC1 (stereo not shown) [A41]
IC50: 0.237 µM

O=C(c1ccccc1Cl)N1CCC(c2nc3ccccc3s2)CC1 [D6]
IC50: 18.5 µM

CCOc1ccccc1NC(=O)C1CCN(C(=O)c2ccc(OC)cc2)CC1 [C47]
IC50 (Table 4, commercial compounds): > 67.6 µM

O=C(CN1CCC(Cc2ccccc2)CC1)Nc1cc(C(F)(F)F)cc(C(F)(F)F)c1 [B118]
IC50: > 78.5 µM

COc1ccccc1N1CCN(CC(=O)Nc2cccc(C(F)(F)F)c2)CC1 [B107]
IC50: > 72.3 µM

1-(1-(2-Methylbenzyl)Piperidin-4-yl)-3-(3-(Trifluoromethyl)Phenyl)Urea [A137]
IC50: 3.8 µM

Cc1c(C(=O)NCC(C)(C)CN(C)C)cnn1-c1nccc(-c2cccs2)n1 [E47]
IC50 (Table 6, commercial compounds): > 67.6 µM

O=C(Nc1ccc(Cl)c(C(F)(F)F)c1)C1CCN(C(=O)c2ccccc2Cl)CC1 [C7]
IC50 (Table 4, commercial compounds): > 46 µM

O=C(c1cccc(F)c1)N1CCC(c2nc3ccccc3s2)CC1 [D12]
IC50: 31.4 µM

CCCC(C)N1CCC(N(Cc2ccccc2)C(=O)Nc2ccc(CN3CCCC3)cc2)CC1 (stereo not shown) [A247]
IC50: > 58.5 µM

CCCC(C)N1CCC(N(Cc2ccccc2)C(=O)Nc2cc(F)ccc2F)CC1 (stereo not shown) [A281]
IC50: > 70.6 µM

CCCCN1CCC(N(Cc2ccccc2)C(=O)Nc2cccnc2)CC1 [A280]
IC50: > 70.1 µM

O=C(Nc1ccc(Cl)cc1Cl)C1CCN(C(=O)c2ccc(F)cc2)CC1 [C15]
IC50 (Table 4, commercial compounds): > 67.6 µM

CCc1ccc(NC(=O)NC2CCN(Cc3ccccc3)CC2)cc1 [B52]
IC50: > 67.6 µM

COc1ccc(Cl)cc1NC(=O)C1CCN(C(=O)c2ccccc2F)CC1 [C42]
IC50 (Table 4, commercial compounds): > 67.6 µM

CCCC(C)N1CCC(N(Cc2ccccc2)C(=O)Nc2cccc(SC)c2)CC1 (stereo not shown) [A44]
IC50: 0.254 µM

CN(C)CC(C)(C)CNC(=O)c1cnn(-c2nccc(-c3cccs3)n2)c1C1CC1 [E37]
IC50 (Table 6, commercial compounds): > 67.6 µM

CCCC(C)N1CCC(N(Cc2ccccc2)C(=O)Nc2ccc(Br)cc2C)CC1 (stereo not shown) [A165]
IC50: 9.43 µM

CC1CC(NC(=O)Nc2cnn(C)c2)CCN1Cc1ccccc1 (stereo not shown) [B42]
IC50: > 64.4 µM

O=C(Nc1cc(F)cc(C(F)(F)F)c1)N(Cc1ccccc1)C1CCN(Cc2ncc[nH]2)CC1 [A225]
IC50: > 26.1 µM
